Data as given in patent publication US9988348B1, “Synthesis and antimicrobial use of a trithiocarbonate derivative” (KING SAUD UNIVERSITY, priority 2017, dated 2018).
Marks after values point to notes of the source that are not given here.

Tested on: C. albicans
Assay: in vivo antifungal activity, candidemia in mice infected with C. albicans
Design: species or system Albino male mice; Total Protein Mean ± SE: unit not given here
Conditions: for daily body weight / % change in daily body weight / Food consumption / Mortality / Water consumption: oral 12 mg/kg then 6 mg/ml
Procedure: To confirm that the water soluble form of the compound 4 has a biological activity as a novel antimicrobial agent, effectiveness of the compound 4 as a drug to treat candidemia in mice was investigated. The experiment was performed in Experimental Animal Care Center (EACC), College of Pharmacy, King Saud University, Riyadh. Fifty Albino male mice, weighing nearly 30±2 gram were used. The mice were arranged in five groups, each including ten mice caged together, given water, and feed ad libitum. Negative control and control group were infected intravenously with 0.2 ml of C. albicans suspension (10^6 CFU/mouse) and 0.2 ml of sterile normal saline (0.89% Nacl) respectively. The group treated with standard drug (fluconazole) was infected intravenously with 0.2 ml of C. albicans suspension (10^6 CFU/mouse) and treated (orally) by 12 mg/kg of fluconazole (loading dose) on the first day followed by 6 mg/ml for 2 weeks. The group treated with the investigated compound 4 was infected intravenously with C. albicans at 10^6 CFU/mouse (0.2 ml) and treated (orally) by 12 mg/kg of the compound 4 (loading dose) on the first day followed by 6 mg/ml for 2 weeks. To study the biological effects of compound 4, a fifth group was designed. In this group the mice were treated intravenously (I. V) with 12 mg/kg of the compound 4 on the first day followed by 6 mg/ml for 2 weeks. All doses of the standard drug and compound 4 were given twice daily.
The effectiveness of the previous treatments on some biological concepts were evaluated. The biological parameters included daily body weight (gm), mortality (%), food consumption (g/day/mouse), water consumption (ml/day/mouse), serum glutamic oxaloacetic transaminase [SGOT(AST) (U/L)], serum glutamic-pyruvic transaminase [SGPT(ALT)(U/L)], alkaline phosphatase (U/L), gamma-glutamyl transferase (GGT) (U/L), bilirubin (mg/dl)], cholesterol (mg/dl), triglycerides (mg/dl), high-density lipoprotein (HDL) (mg/dl), very-low-density lipoprotein (VLDL) (mg/dl), low-density lipoprotein (LDL) (mg/dl), lactate dehydrogenase (LDH) (U/L), glucose (mg/dl), total protein (mg/dl), malondialdehyde (MDA) (nmol/g), nonprotein sulfyhydryl (NP-SH) (nmol/g). Addition hematologic constituents including white blood cells (WBC) (cell/mm^3), red blood cells (RBC) (10^6/mm^3), hemoglobin (HGB) (g/dL), HCT, Platelets (PLT) (10^3/mm^3), mean corpuscular volume (MCV) (fL), mean corpuscular hemoglobin (MCH) (pg), mean corpuscular hemoglobin concentration (MCHC) (g/dL), neutrophils (%), lymphocytes (%), eosinophils (%) and monocytes (%)] were evaluated (Classics Lowry et al. 1951; Utley et al. 1967; Sedlak et al. 1968). SGOT (AST), SGPT (ALT), ALP, GGT, bilirubin LDH and total protein were estimated using Reflotron Plus Analyzer and Roche kits (Roche Diagnostics GmbH, Mannheim Germany) and United diagnostic kits assay. Hematological tests were performed by Mindray BC-2800VET auto Hematology Analyzer.

[1] = C. albicans-infected mice, day 1
[2] = C. albicans-infected mice, day 2
[3] = C. albicans-infected mice, day 3
[4] = C. albicans-infected mice, day 4
[5] = C. albicans-infected mice, day 5
[6] = C. albicans-infected mice, day 6
[7] = C. albicans-infected mice, day 7
[8] = C. albicans-infected mice, day 8
[9] = C. albicans-infected mice, day 9
[10] = C. albicans-infected mice, day 10
[11] = C. albicans-infected mice, day 11
[12] = C. albicans-infected mice, day 12
[13] = C. albicans-infected mice, day 13
[14] = C. albicans-infected mice, day 14
[15] = C. albicans-infected mice, day 15
[16] = blood, C. albicans-infected mice, oral 12 mg/kg then 6 mg/ml for 2 weeks
[17] = liver tissue, C. albicans-infected mice, oral 12 mg/kg then 6 mg/ml for 2 weeks
[18] = serum, C. albicans-infected mice, oral 12 mg/kg then 6 mg/ml for 2 weeks

CCOC(=O)CSC(=S)SCC(=O)OCC [Compound 4, diethyl 2,2′-(thiocarbonylbis(sulfanediyl))diacetate]
daily body weight (C. albicans-infected mice, day 0): 21.00 ± 0.36 gm | % change in daily body weight [1]: 2.38% | Food consumption [1]: 4.5 g/day/mice | Mortality [1]: 0% | Water consumption [1]: 4.5 g/day/mice | daily body weight [1]: 21.50 ± 0.26 gm | % change in daily body weight [2]: 4.76% | Food consumption [2]: 4.6 g/day/mice | Mortality [2]: 0% | Water consumption [2]: 4.5 g/day/mice | daily body weight [2]: 22.00 ± 0.25 gm | % change in daily body weight [3]: 6.19% | Food consumption [3]: 4.7 g/day/mice | Mortality [3]: 0% | Water consumption [3]: 4.7 g/day/mice | daily body weight [3]: 22.3 ± 0.21 gm | % change in daily body weight [4]: 9.04% | Food consumption [4]: 4.9 g/day/mice | Mortality [4]: 0% | Water consumption [4]: 4.9 g/day/mice | daily body weight [4]: 22.90 ± 0.27 gm | % change in daily body weight [5]: 12.16% | Food consumption [5]: 4.00 g/day/mice | Mortality [5]: 10% | Water consumption [5]: 4.2 g/day/mice | daily body weight [5]: 23.55 ± 0.37 gm | % change in daily body weight [6]: 15.34% | Food consumption [6]: 4.2 g/day/mice | Mortality [6]: 10% | Water consumption [6]: 4.6 g/day/mice | daily body weight [6]: 24.22 ± 0.32 gm | % change in daily body weight [7]: 17.46% | Food consumption [7]: 4.2 g/day/mice | Mortality [7]: 10% | Water consumption [7]: 5.7 g/day/mice | daily body weight [7]: 24.66 ± 0.23 gm | % change in daily body weight [8]: 18.45% | Food consumption [8]: 4.3 g/day/mice | Mortality [8]: 20% | Water consumption [8]: 4.6 g/day/mice | daily body weight [8]: 24.87 ± 0.29 gm | % change in daily body weight [9]: 20.23% | Food consumption [9]: 4.5 g/day/mice | Mortality [9]: 20% | Water consumption [9]: 4.6 g/day/mice | daily body weight [9]: 25.25 ± 0.25 gm | % change in daily body weight [10]: 20.83% | Food consumption [10]: 4.5 g/day/mice | Mortality [10]: 20% | Water consumption [10]: 4.8 g/day/mice | daily body weight [10]: 25.37 ± 0.26 gm | % change in daily body weight [11]: 24.48% | Food consumption [11]: 4.7 g/day/mice | Mortality [11]: 30% | Water consumption [11]: 5.1 g/day/mice | daily body weight [11]: 26.14 ± 0.26 gm | % change in daily body weight [12]: 25.17% | Food consumption [12]: 5.0 g/day/mice | Mortality [12]: 30% | Water consumption [12]: 5.4 g/day/mice | daily body weight [12]: 26.28 ± 0.28 gm | % change in daily body weight [13]: 29.93% | Food consumption [13]: 5.14 g/day/mice | Mortality [13]: 30% | Water consumption [13]: 5.5 g/day/mice | daily body weight [13]: 27.28 ± 0.28 gm | % change in daily body weight [14]: 34.92% | Food consumption [14]: 5.3 g/day/mice | Mortality [14]: 30% | Water consumption [14]: 5.5 g/day/mice | daily body weight [14]: 28.33 ± 0.49 gm | % change in daily body weight [15]: 36.50% | Food consumption [15]: 5.5 g/day/mice | Mortality [15]: 30% | Water consumption [15]: 5.8 g/day/mice | daily body weight [15]: 28.66 ± 0.33 gm | Eosinophils Mean ± SE [16]: 1.30 ± 0.02% | HCT Mean ± SE [16]: 31.3 ± 0.42 | HGB Mean ± SE [16]: 9.8 ± 0.14 g/dL | Lymphocytes Mean ± SE [16]: 7.10 ± 0.07% | MCH Mean ± SE [16]: 26.3 ± 0.5 pg | MCHC Mean ± SE [16]: 23.4 ± 1.0 g/dL | MCV Mean ± SE [16]: 53.7 ± 2.0 fL | Monocytes Mean ± SE [16]: 0.88 ± 0.07^b % | Neutrophils Mean ± SE [16]: 24.1 ± 0.2% | PLT Mean ± SE [16]: 522.3 ± 10.1 10^3/mm^3 | RBC Mean ± SE [16]: 6.16 ± 0.1 10^6/mm^3 | WBC Mean ± SE [16]: 7540.8 ± 87.3 Cell/mm^3 | effect on mortality caused by C. albicans, in words (dose of 800 mg as the loading dose, followed by 400 mg/d for 2 week): reduced the mortality | MDA [17]: 4.57 ± 0.25***^b nmol/g | Total Protein [17]: 77.84 ± 2.37**^b g/l | Alkaline phosphatase Mean ± SE [18]: 354.66 ± 5.57 U/L | Bilirubin Mean ± SE [18]: 1.15 ± 0.03 mg/dL | Cholesterol Mean ± SE [18]: 159.8 ± 3.4 mg/dL | GGT Mean ± SE [18]: 7.18 ± 0.20 U/L | Glucose level Mean ± SE [18]: 166.83 ± 4.32**^b mg/dl | HDL Mean ± SE [18]: 26.9 ± 1.1 mg/dL | LDH Mean ± SE [18]: 220.98 ± 3.96**^b U/L | LDL Mean ± SE [18]: 105.9 ± 4.6 mg/dL | SGOT(AST) Mean ± SE [18]: 169.33 ± 2.69 U/L | SGPT(ALT) Mean ± SE [18]: 83.50 ± 2.35 U/L | Total Protein Mean ± SE [18]: 4.91 ± 0.09 | Triglycerides Mean ± SE [18]: 134.8 ± 3.8 mg/dL | VLDL Mean ± SE [18]: 26.9 ± 0.7 mg/dL
